# Experimental data: ChEMBL document CHEMBL1158694, “Terphenylquinone inhibitors of the src protein tyrosine kinase from Stilbella sp” (J Nat Prod, 2005)
# pIC50: −log10 of the molar value.
# Molecular target: Proto-oncogene tyrosine-protein kinase Src (Homo sapiens, UniProt P12931)
# Assay: Inhibition of His-tagged human src kinase expressed in Sf9 cells by DELFIA assay
# Sequence of Proto-oncogene tyrosine-protein kinase Src (P12931 2-536 limits assumed): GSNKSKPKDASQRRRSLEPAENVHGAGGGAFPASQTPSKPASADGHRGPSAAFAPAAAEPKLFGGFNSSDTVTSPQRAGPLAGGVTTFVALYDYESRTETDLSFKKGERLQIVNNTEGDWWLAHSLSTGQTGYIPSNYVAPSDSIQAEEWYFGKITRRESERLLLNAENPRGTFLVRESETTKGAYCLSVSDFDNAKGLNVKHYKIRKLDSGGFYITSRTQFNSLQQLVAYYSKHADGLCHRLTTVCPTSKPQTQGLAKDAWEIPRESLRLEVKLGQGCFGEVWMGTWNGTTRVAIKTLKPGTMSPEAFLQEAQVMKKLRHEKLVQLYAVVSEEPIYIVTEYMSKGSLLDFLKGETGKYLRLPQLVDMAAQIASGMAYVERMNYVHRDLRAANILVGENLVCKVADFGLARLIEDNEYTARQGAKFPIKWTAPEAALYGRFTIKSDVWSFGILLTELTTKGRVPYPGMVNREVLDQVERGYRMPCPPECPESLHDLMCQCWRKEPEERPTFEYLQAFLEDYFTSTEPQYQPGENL
row,SMILES,pIC50
1,O=C1C(O)=C(c2ccc(O)cc2)C(=O)C(O)=C1c1ccccc1,4.43
2,O=C1C(c2ccccc2)=C(O)C(=O)c2c1oc1cc(O)c(O)cc21,4.63
3,O=C1C(O)=C(c2cc(O)c(O)c(O)c2)C(=O)C(O)=C1c1ccccc1,5.41
4,O=C1C(O)=C(c2ccc(O)c(O)c2)C(=O)C(O)=C1c1ccccc1,4.84
5,O=C1C(O)=C(c2ccccc2)C(=O)C(O)=C1c1ccccc1,< 4.30
